Test results taken from article PMC7717570, “Deciphering the enzymatic target of a new family of antischistosomal agents bearing a quinazoline scaffold using complementary computational tools” (Journal of Enzyme Inhibition and Medicinal Chemistry, 2020).
Read-outs that look alike come from different tables or passages of the source.

Legend:
[1] = Microsomal stability, mouse liver microsomes (S9), Phase-I (CYP450-NADPH); assay type: in vitro ADME; conditions: 5 µM
Protocol: (§1) Mouse or human liver microsomes (S9), reduced nicotinamide adenine dinucleotide phosphate (NADPH) generating system solutions and uridine glucuronosyltransferase (UGT) reaction mix (BD Biosciences) were kept at −80 °C. The test compounds and reference compound diclofenac were formulated in DMSO at […]. The assay was carried out based on the BD Biosciences Guidelines for Use (TF000017 Rev1.0) with minor adaptations. The metabolic stability of the compounds was studied through the CYP450 superfamily (Phase-I metabolism) by fortification with NADPH and through UGT enzymes (Phase-II metabolism) by fortification with uridine diphosphate glucuronic acid (UDPGA). For CYP450 and other NADPH dependent enzymes, the compounds were incubated at 5 µM together with 0.5 mg/mL S9 in potassium phosphate buffer in a reaction started by the addition of 1 mM NADP. At defined time points, 20 µL was withdrawn from the reaction mixture and 80 µL cold acetonitrile (ACN) was added to inactivate the enzymes and precipitate the protein. The mixture was vortexed for 30 s and centrifuged at 4 °C for 5 min to collect the supernatant. For UGT enzymes, the compounds were incubated at 5 µM together with 0.5 mg/mL S9 in a reaction started by the addition of 2 mM UDPGA cofactor. The loss of parent compound was determined using liquid chromatography (UPLC) (Waters Aquity^TM) coupled with tandem quadrupole mass spectrometry (MS^2) (Waters Xevo^TM), equipped with an electrospray ionisation (ESI) interface and operated in multiple reaction monitoring (MRM) mode.

[2] = Microsomal stability, mouse liver microsomes (S9), Phase-II (UGT enzymes); assay type: in vitro ADME; conditions: 5 µM
Protocol: as §1

[3] = Microsomal stability, human liver microsomes (S9), Phase-I (CYP450-NADPH); assay type: in vitro ADME; conditions: 5 µM
Protocol: as §1

[4] = Microsomal stability, human liver microsomes (S9), Phase-II (UGT enzymes); assay type: in vitro ADME; conditions: 5 µM
Protocol: as §1

[5] = system: Schistosoma mansoni mature worms; experiment: In vitro S. mansoni worm killing; set-up: key to Worm killing (male worms) / Worm killing (female worms): % worm mortality = dead worms / total worms × 100; conditions: for killing at 5 µM / killing at 10 µM / killing at 25 µM / killing at 50 µM / killing at 100 µM / EC50: Schistosoma mansoni; for killing at 5 µM / killing at 10 µM / killing at 25 µM / killing at 50 µM / killing at 100 µM: 120 h, read-out: Worm killing (% of total); for Worm killing (female worms) / Worm killing (male worms): day 5
Protocol: The percentage reduction of worm or egg burden in each treated group was calculated. […] Results are expressed as mean ± SEM. A two-tailed, unpaired Student’s t-test was used to detect the significance of difference between the means of different groups. […] Stock solutions of 5 mM PZQ and the quinazoline derivatives 2–13 were prepared in DMSO. Concentrations of 100 µM, 50 µM, 25 µM, 10 µM and 5 µM were freshly prepared on the day of experiment in RPMI-1640 medium. All compounds were initially tested at 100 and 50 µM; those showing worm killing were further tested at 25, 10 and 5 µM. Worms were obtained from SBSC of TBRI. Six to eight worms were placed in 12-well tissue culture plates and fresh RPMI-1640 medium (supplemented with glutamine, 20% newborn calf serum and streptomycin, penicillin, and gentamicin), containing the indicated concentration of the test compound was added[20]^,[21]. Worms were incubated overnight in a CO2 incubator at 37 °C. On the 2nd day, worms were examined by microscopy, washed three times with normal saline, fresh medium was added and the incubation was continued. On the 3rd day, worm motility was observed and on the 4th day, medium was changed again. On day 5 (end of the observation period), worms were microscopically examined for their motility and appearance. Each concentration was tested in duplicate, and the final recording of percent worm mortality was determined as the number of dead worms [contracted and opaque] divided by the total number of worms × 100. Negative controls used medium without additions or medium with 2% DMSO; positive control media containing identical concentrations of PZQ were tested in parallel.

[6] = system: Schistosoma mansoni worm couples; experiment: S. mansoni ovipositing capacity and coupling; conditions: for inhibition at 5 µM / inhibition at 10 µM / inhibition at 25 µM / inhibition at 50 µM / inhibition at 100 µM: Schistosoma mansoni, 120 h, read-out: Reduction in number of eggs (%)
Protocol: Stock solutions of 5 mM PZQ and the quinazoline derivatives 2–13 were prepared in DMSO. Concentrations of 100 µM, 50 µM, 25 µM, 10 µM and 5 µM were freshly prepared on the day of experiment in RPMI-1640 medium. All compounds were initially tested at 100 and 50 µM; those showing worm killing were further tested at 25, 10 and 5 µM. 12-well tissue culture plates were used, each well containing 6–8 worms with at least one worm couple. Worms were incubated overnight in a CO2 incubator at 37 °C. Each concentration was tested in duplicate wells. On day 4, eggs were counted and discarded and the medium was changed. On day 5 (end of observation period) newly deposited eggs were counted. The final egg number is the total count of days 4 and 5 for each concentration tested and the final recording of the percentage of egg reduction was determined as [the total number of eggs on days 4 and 5 of control – the total number of eggs on days 4 and 5 of treated]/the total number of eggs on days 4 and 5 of control × 100.

[7] = 5 µM, day 5, mature (6 weeks old) worms, dose-titration (Table 3)
[8] = 10 µM, day 5, mature (6 weeks old) worms, dose-titration (Table 3)
[9] = 25 µM, day 5, mature (6 weeks old) worms, dose-titration (Table 3)
[10] = 50 µM, day 5, initial test (Table 2)
[11] = 50 µM, day 5, mature (6 weeks old) worms, dose-titration (Table 3)
[12] = 100 µM, day 5, initial test (Table 2)
[13] = 100 µM, day 5, mature (6 weeks old) worms, dose-titration (Table 3)
[14] = males and females together, read-out: EC50 (worm killing)
[15] = read-out: EC50 (worm killing, female worms)
[16] = read-out: EC50 (worm killing, male worms)
[17] = 10 µM, dose-titration (Table 3)
[18] = 25 µM, dose-titration (Table 3)
[19] = 50 µM, dose-titration (Table 3)
[20] = 100 µM, dose-titration (Table 3)

## COc1ccc(Cn2c(=O)c3cc(Cl)ccc3n(Cc3ccc(C(F)(F)F)cc3)c2=O)cc1 [compound 9, 6-Chloro-1-(4-(trifluoromethyl)benzyl)-3-(4-methoxybenzyl)quinazolin-2,4(1H,3H)-dione]
[1]; 0 h
  % Parent compound remaining upon incubation: 100%
[1]; 0.25 h
  % Parent compound remaining upon incubation: 91%
[1]; 0.5 h
  % Parent compound remaining upon incubation: 51%
[1]; 1 h
  % Parent compound remaining upon incubation: 44%
[2]; 0 h
  % Parent compound remaining upon incubation: 100%
[2]; 0.25 h
  % Parent compound remaining upon incubation: 101%
[2]; 0.5 h
  % Parent compound remaining upon incubation: 103%
[2]; 1 h
  % Parent compound remaining upon incubation: 105%
[3]; 0 h
  % Parent compound remaining upon incubation: 100%
[3]; 0.25 h
  % Parent compound remaining upon incubation: 104%
[3]; 0.5 h
  % Parent compound remaining upon incubation: 61%
[3]; 1 h
  % Parent compound remaining upon incubation: 67%
[4]; 0 h
  % Parent compound remaining upon incubation: 100%
[4]; 0.25 h
  % Parent compound remaining upon incubation: 94%
[4]; 0.5 h
  % Parent compound remaining upon incubation: 95%
[4]; 1 h
  % Parent compound remaining upon incubation: 97%
[5]; [7]
  killing at 5 µM: 0%
[5]; [8]
  killing at 10 µM: 0%
[5]; [9]
  killing at 25 µM: 0%
[5]; [10]
  killing at 50 µM: 29%
[5]; [11]
  killing at 50 µM: 88%
[5]; [12]
  killing at 100 µM: 100%
[5]; [13]
  killing at 100 µM: 100%
[5]; [14]
  EC50: 47 µM
[5]; [15]
  EC50: 49 µM
[5]; [16]
  EC50: 41 µM
[5]; 5 µM
  Worm killing (female worms): 0
  Worm killing (male worms): 0
[5]; 10 µM
  Worm killing (female worms): 0
  Worm killing (male worms): 0
[5]; 25 µM
  Worm killing (female worms): 0
  Worm killing (male worms): 0
[5]; 50 µM
  Worm killing (female worms): 75
  Worm killing (male worms): 100
[5]; 100 µM
  Worm killing (female worms): 100
  Worm killing (male worms): 100
[6]; 5 µM, dose-titration (Table 3)
  Uncoupling: No
  inhibition at 5 µM: 67%
[6]; [17]
  Uncoupling: No
  inhibition at 10 µM: 73%
[6]; [18]
  Uncoupling: Yes
  inhibition at 25 µM: 100%
[6]; [19]
  Reduction in number of eggs (%): 100%
  Uncoupling: Yes
[6]; 50 µM, initial test (Table 2)
  Uncoupling: Yes
  inhibition at 50 µM: 100%
[6]; [20]
  Reduction in number of eggs (%): 100%
  Uncoupling: Yes
[6]; 100 µM, initial test (Table 2)
  Uncoupling: Yes
  inhibition at 100 µM: 100%

## COc1cc2c(=O)n(Cc3ccc(F)cc3)c(=O)n(Cc3ccc(C(F)(F)F)cc3)c2cc1OC [compound 10, 3-(4-Fluorobenzyl)-1-(4-(trifluoromethyl)benzyl)-6,7-dimethoxyquinazolin-2,4(1H,3H)-dione]
[1]; 0 h
  % Parent compound remaining upon incubation: 100%
[1]; 0.25 h
  % Parent compound remaining upon incubation: 85%
[1]; 0.5 h
  % Parent compound remaining upon incubation: 39%
[1]; 1 h
  % Parent compound remaining upon incubation: 32%
[2]; 0 h
  % Parent compound remaining upon incubation: 100%
[2]; 0.25 h
  % Parent compound remaining upon incubation: 89%
[2]; 0.5 h
  % Parent compound remaining upon incubation: 83%
[2]; 1 h
  % Parent compound remaining upon incubation: 91%
[3]; 0 h
  % Parent compound remaining upon incubation: 100%
[3]; 0.25 h
  % Parent compound remaining upon incubation: 108%
[3]; 0.5 h
  % Parent compound remaining upon incubation: 83%
[3]; 1 h
  % Parent compound remaining upon incubation: 65%
[4]; 0 h
  % Parent compound remaining upon incubation: 100%
[4]; 0.25 h
  % Parent compound remaining upon incubation: 102%
[4]; 0.5 h
  % Parent compound remaining upon incubation: 106%
[4]; 1 h
  % Parent compound remaining upon incubation: 98%
[5]; [7]
  killing at 5 µM: 0%
[5]; [8]
  killing at 10 µM: 8%
[5]; [9]
  killing at 25 µM: 50%
[5]; [10]
  killing at 50 µM: 93%
[5]; [11]
  killing at 50 µM: 100%
[5]; [12]
  killing at 100 µM: 100%
[5]; [13]
  killing at 100 µM: 100%
[5]; [14]
  EC50: 25 µM
[5]; [15]
  EC50: 26 µM
[5]; [16]
  EC50: 20 µM
[5]; 5 µM
  Worm killing (female worms): 0
  Worm killing (male worms): 0
[5]; 10 µM
  Worm killing (female worms): 0
  Worm killing (male worms): 14
[5]; 25 µM
  Worm killing (female worms): 33
  Worm killing (male worms): 63
[5]; 50 µM
  Worm killing (female worms): 100
  Worm killing (male worms): 100
[5]; 100 µM
  Worm killing (female worms): 100
  Worm killing (male worms): 100
[6]; 5 µM, dose-titration (Table 3)
  Uncoupling: No
  inhibition at 5 µM: 77%
[6]; [17]
  Uncoupling: No
  inhibition at 10 µM: 80%
[6]; [18]
  Uncoupling: Yes
  inhibition at 25 µM: 100%
[6]; [19]
  Uncoupling: Yes
[6]; 50 µM, initial test (Table 2)
  Uncoupling: Yes
  inhibition at 50 µM: 100%
[6]; [20]
  Uncoupling: Yes
[6]; 100 µM, initial test (Table 2)
  Uncoupling: Yes
  inhibition at 100 µM: 100%
